Source: PubChem BioAssay (NCI)
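Assay format: 96-well plates, 48-hour exposure. TGI: concentration producing complete growth inhibition.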

How the values were obtained:
Assay in all cases: NCI-60 cell line screen, 48 h
MCF7 breast = system: MCF7 breast
SF-539 CNS = system: SF-539 CNS
SNB-19 CNS = system: SNB-19 CNS
MDA-MB-231 breast = system: MDA-MB-231 breast
MALME-3M melanoma = system: MALME-3M melanoma
RXF 393 renal = system: RXF 393 renal
MDA-N = system: MDA-N
DU-145 prostate = system: DU-145 prostate
SK-MEL-5 melanoma = system: SK-MEL-5 melanoma
ACHN renal = system: ACHN renal

Compound	TGI (MCF7 breast) [µM]	TGI (SF-539 CNS) [µM]	TGI (SNB-19 CNS) [µM]	TGI (MDA-MB-231 breast) [µM]	TGI (MALME-3M melanoma) [µM]	TGI (RXF 393 renal) [µM]	TGI (MDA-N) [µM]	TGI (DU-145 prostate) [µM]	TGI (SK-MEL-5 melanoma) [µM]	TGI (ACHN renal) [µM]
COc1ccc(C2C(=O)c3c(OC)cc(OC)cc3OC2c2cccnc2)cc1 (stereo unspecified)	> 100	> 100	> 100	> 100	> 100	> 100	> 100	> 100	> 100	> 100
CC(C)=CC[C@]12CCN(C)[C@H]1N(S(=O)(=O)c1ccccc1)c1ccccc12	> 72.9	> 100	> 100	> 100	> 100	> 71.7	> 100	> 100	–	> 100
COC(=O)c1cc(OC)c(OC)c(OC)c1-c1cc2c(cc1C=O)OCO2	> 10	> 10	> 10	> 10	> 10	> 10	> 10	> 10	> 10	> 10
O=C1CSC(c2cccc(Cl)c2)N1c1ccc(-c2ccc(-n3c(-c4ccccc4)nc4ccccc4c3=O)cc2)cc1 (stereo unspecified)	> 100	> 100	> 100	> 100	> 100	–	> 100	> 100	84.4	> 100
O=C(O)/C=C/c1ccc2c(c1)CC1(Cc3ccccc3C1)C2	> 100	> 100	–	> 100	> 100	> 100	> 100	–	> 100	> 100
CC1(C)OC2OC(C(COS(=O)(=O)C(F)(F)F)N=[N+]=[N-])C(OC(=O)c3ccccc3)C2O1 (stereo unspecified)	> 100	> 100	> 100	> 100	> 100	> 100	> 100	> 100	> 100	> 100
CN(CCc1ccccn1)C(=S)N/N=C(\c1ccccc1)c1ccccn1	> 100	–	9.07	–	3.14	2.83	8.51	5.66	6.65	1.92
[N-]=[N+]=CC(=O)OCCCCl	> 100	–	> 100	> 100	> 100	> 100	> 100	> 100	> 100	> 100
CCn1c(CCl)nc2c1C(=O)c1ccccc1C2=O	3.79	4.89	3.59	–	2.41	3.29	3.85	9.02	2.84	13.2
CC(=O)NC1=NC(=O)/C(=C/c2ccc(/C=C3/C(=O)N=C(NC(C)=O)N3C)cc2)N1C	> 100	> 100	> 100	> 100	–	> 100	> 100	> 100	> 100	> 100
Cc1cc(S(=O)(=O)Nc2n[nH]c(N)n2)c(Cl)cc1Cl	–	> 10	> 10	> 10	> 10	> 10	> 10	> 10	> 10	> 10
Cc1c2c(n(CC(c3ccccc3)c3ccccc3)c1C)NN=C(C#N)S2(=O)=O	> 100	> 100	> 100	> 100	–	–	> 100	> 100	> 100	> 100
CCC(C)C1=C(O)[N+]2([O-])Oc3ccc(-c4c(O)c(O)c(-c5ccc(OC(C)=O)cc5)c(OC(C)=O)c4OC(C)=O)cc3OC2(C(C)CC)C(=O)N1O (stereo unspecified)	> 50	> 50	> 50	> 50	> 50	> 50	> 50	> 50	> 50	> 50
COC1(CC[C@@H](C)COC2OC(CO)C(O)C(O)C2O)O[C@H]2C[C@H]3[C@@H]4CC=C5C[C@@H](OC6OC(CO)C(O)C(OC7OC(CO)C(O)C(O)C7O)C6OC6OC(C)C(O)C(O)C6O)CC[C@]5(C)[C@H]4CC[C@]3(C)[C@H]2[C@@H]1C (stereo partly specified)	37.6	7.11	21.2	16.5	9.29	19.5	23.1	14.7	27.5	30.1
O=c1[nH]c(NCc2ccc(Cl)cc2)nc2nc[nH]c12	> 100	> 100	> 100	> 100	> 100	> 100	> 100	> 100	> 100	> 100
NC(Cc1ccc2nc3c4ccccc4c(=O)cc-3oc2c1)C(=O)O (stereo unspecified)	41.4	> 100	> 100	> 100	36.8	> 100	29.4	> 100	34.6	> 100
N/C1=C/C(=O)NC(=O)c2c(c3ccccc3oc2=O)C1	–	–	> 100	> 100	> 100	> 100	> 100	> 100	–	> 100
C/C(=N\Nc1nc2ccccc2s1)c1cc2ccccc2cn1	> 100	25.6	> 100	33.9	> 100	16	> 100	12.6	11.9	> 100
CC(Oc1ccccc1)C(=O)NNC(=O)OC(C)(C)C (stereo unspecified)	> 100	> 100	> 100	> 100	> 100	> 100	> 100	> 100	> 100	> 100
O=C1C(c2c(O)[nH]c3ccc(Br)cc23)=Nc2ccc(Br)cc21	43.1	–	92.4	79.5	> 100	40.7	63	82.3	> 100	> 100
C/C(=N\O)c1cccc[n+]1Cc1ccccc1	> 100	> 100	> 100	> 100	> 100	> 100	> 100	> 100	> 100	> 100
C/C(=C/CC[C@]1(CO)CC[C@]2(C)[C@H](CC[C@@H]3[C@@]4(C)CC[C@H](OC5OC(CO)C(O)C(O)C5OC5OC(CO)C(O)C(O)C5O)C(C)(C)[C@@H]4CC[C@]32C)[C@H]1O)CO (stereo partly specified)	> 100	> 100	> 100	> 100	> 100	> 100	> 100	> 100	> 100	> 100

Compound	TGI (MCF7 breast) [µM]	TGI (SF-539 CNS) [µM]	TGI (SNB-19 CNS) [µM]	TGI (MDA-MB-231 breast) [µM]	TGI (MALME-3M melanoma) [µM]	TGI (RXF 393 renal) [µM]	TGI (MDA-N) [µM]	TGI (DU-145 prostate) [µM]	TGI (SK-MEL-5 melanoma) [µM]	TGI (ACHN renal) [µM]
C[C@@H]1CC(=O)C[C@@H]2CC[C@H]3[C@@H]4CC[C@H](OC(=O)c5cccc6cc7ccccc7nc56)[C@H]4CC[C@@H]3[C@H]21	–	38.6	37.5	37	22.8	34.9	26.3	28.7	28.3	29.3
O=C1CSC(c2ccc(Cl)cc2Cl)N1c1ccc(Oc2ccc(Cl)cc2)c(Cl)c1 (stereo unspecified)	> 100	86.7	> 100	45.2	38.2	–	98	> 100	43.6	> 100
CC1=CP(=O)(c2c(C(C)C)cc(C(C)C)cc2C(C)C)CCC1Cl (stereo unspecified)	35.5	32.9	30.3	30.7	30.4	31.5	46.7	37.1	31.7	31.5
COc1ccc(NCC(=O)Nn2c(-c3ccccc3)nc3ccccc3c2=O)cc1	41.2	> 100	> 100	84.4	70.2	> 10	> 100	> 100	32.8	> 100
OC1COC2CC(Nc3ccccn3)OC12 (stereo unspecified)	–	> 100	> 100	> 100	> 100	> 100	> 100	–	> 100	> 100
C(#CP(c1ccccc1)c1ccccc1)P(C#CP(c1ccccc1)c1ccccc1)c1ccccc1	> 100	> 100	> 100	> 100	> 100	> 100	> 100	> 100	> 100	> 100
c1ccc2c(c1)cc1n2CCc2c-1[nH]c1ccccc21	> 10	> 10	> 10	> 10	> 10	> 10	> 10	> 10	> 10	> 10
NCCN1C(=O)c2ccccc2C1c1ccc(Cl)cc1 (stereo unspecified)	> 100	> 100	> 100	> 100	–	> 100	> 100	> 100	> 100	> 100
O=C1CN(c2cccc(Cl)c2)C(=O)CN1NCNN1CC(=O)N(c2cccc(Cl)c2)CC1=O	> 100	> 100	> 100	–	> 100	> 100	> 100	> 100	> 100	> 100
COc1cc(OC)c2c(c1)OC(c1cccnc1)C(c1ccccc1)C2=O (stereo unspecified)	> 100	> 100	> 100	> 100	> 100	> 100	> 100	> 100	> 100	> 100
O=C(NO)NCCCl	> 100	> 100	> 100	> 100	> 100	> 100	> 100	> 100	> 100	> 100
CCOC(=O)C1(C#N)CC1	> 100	> 100	> 100	> 100	> 100	> 100	> 100	> 100	> 100	> 100
CC(C)(C)N/N=C(\C(=O)NC1=C(Cl)C(=O)c2ccccc2C1=O)C1C=CCS1(=O)=O (stereo unspecified)	29	54.2	> 100	32.4	6.44	–	6.33	23.2	–	55.3
C=C(Cl)C(Cl)(CCl)CCC(Br)C(C)(C)Br (stereo unspecified)	> 10	> 10	> 10	> 10	–	> 10	> 10	> 10	> 10	> 10
Br[C@@H]1[C@H]2c3nc4ccccc4nc3[C@@H]1C[C@H]2Br	> 100	–	> 100	> 100	> 100	94.6	> 100	> 100	69.5	> 100
CC1=C(C)CC2(C=C(C(C)(C)C)C(=O)C(C(C)(C)C)=C2)SC1	36.6	38	31.5	29.2	33.4	38.7	90.3	> 100	27.4	–
CC(C)C1=CC(=O)[C@@](C)(C2[C@H](O)C[C@@]3(C)[C@@H]4CC=C5[C@@H](CC[C@@H](OC6OCC(O)C(O)C6OC6OC(C)C(O)C(O)C6O)C5(C)C)[C@]4(C)C(=O)C[C@]23C)O1 (stereo partly specified)	> 100	–	> 100	> 100	> 100	> 100	> 100	> 100	> 100	> 100
CC(C)(NC(=O)OCc1ccccc1)C(=O)OC(=O)C(C)(C)NC(=O)OCc1ccccc1	> 100	> 100	> 100	> 100	> 100	–	> 100	–	> 100	> 100
CCOC(=O)c1c(SC(=O)c2ccc(OC)cc2)n(-c2ccccc2)c(=S)n(-c2ccccc2)c1=O	> 100	42.2	> 100	81	> 100	> 100	> 100	> 100	–	> 100
COc1nc2ccc(COc3ccc(C(=O)O)cc3)cc2nc1OC	> 100	> 100	> 100	> 100	> 100	–	> 100	> 100	> 100	> 100
COc1cc2c(cc1OC)C(=O)/C(=C/c1cc(C)cc(C)c1)C2	> 31.9	–	> 89.1	7.44	–	0.604	0.0621	6.23	0.932	> 100
